Experimental findings from US10758534B2 (Vertex Pharmaceuticals Incorporated, priority 2014, dated 2020) are described below.

The target in the assay is T1, F508del (Homo sapiens, UniProt P13569, DEL508-508).
T1 construct: expressed in transfected cells
T1 sequence (P13569 with tags, fused parts or gaps DEL508-508): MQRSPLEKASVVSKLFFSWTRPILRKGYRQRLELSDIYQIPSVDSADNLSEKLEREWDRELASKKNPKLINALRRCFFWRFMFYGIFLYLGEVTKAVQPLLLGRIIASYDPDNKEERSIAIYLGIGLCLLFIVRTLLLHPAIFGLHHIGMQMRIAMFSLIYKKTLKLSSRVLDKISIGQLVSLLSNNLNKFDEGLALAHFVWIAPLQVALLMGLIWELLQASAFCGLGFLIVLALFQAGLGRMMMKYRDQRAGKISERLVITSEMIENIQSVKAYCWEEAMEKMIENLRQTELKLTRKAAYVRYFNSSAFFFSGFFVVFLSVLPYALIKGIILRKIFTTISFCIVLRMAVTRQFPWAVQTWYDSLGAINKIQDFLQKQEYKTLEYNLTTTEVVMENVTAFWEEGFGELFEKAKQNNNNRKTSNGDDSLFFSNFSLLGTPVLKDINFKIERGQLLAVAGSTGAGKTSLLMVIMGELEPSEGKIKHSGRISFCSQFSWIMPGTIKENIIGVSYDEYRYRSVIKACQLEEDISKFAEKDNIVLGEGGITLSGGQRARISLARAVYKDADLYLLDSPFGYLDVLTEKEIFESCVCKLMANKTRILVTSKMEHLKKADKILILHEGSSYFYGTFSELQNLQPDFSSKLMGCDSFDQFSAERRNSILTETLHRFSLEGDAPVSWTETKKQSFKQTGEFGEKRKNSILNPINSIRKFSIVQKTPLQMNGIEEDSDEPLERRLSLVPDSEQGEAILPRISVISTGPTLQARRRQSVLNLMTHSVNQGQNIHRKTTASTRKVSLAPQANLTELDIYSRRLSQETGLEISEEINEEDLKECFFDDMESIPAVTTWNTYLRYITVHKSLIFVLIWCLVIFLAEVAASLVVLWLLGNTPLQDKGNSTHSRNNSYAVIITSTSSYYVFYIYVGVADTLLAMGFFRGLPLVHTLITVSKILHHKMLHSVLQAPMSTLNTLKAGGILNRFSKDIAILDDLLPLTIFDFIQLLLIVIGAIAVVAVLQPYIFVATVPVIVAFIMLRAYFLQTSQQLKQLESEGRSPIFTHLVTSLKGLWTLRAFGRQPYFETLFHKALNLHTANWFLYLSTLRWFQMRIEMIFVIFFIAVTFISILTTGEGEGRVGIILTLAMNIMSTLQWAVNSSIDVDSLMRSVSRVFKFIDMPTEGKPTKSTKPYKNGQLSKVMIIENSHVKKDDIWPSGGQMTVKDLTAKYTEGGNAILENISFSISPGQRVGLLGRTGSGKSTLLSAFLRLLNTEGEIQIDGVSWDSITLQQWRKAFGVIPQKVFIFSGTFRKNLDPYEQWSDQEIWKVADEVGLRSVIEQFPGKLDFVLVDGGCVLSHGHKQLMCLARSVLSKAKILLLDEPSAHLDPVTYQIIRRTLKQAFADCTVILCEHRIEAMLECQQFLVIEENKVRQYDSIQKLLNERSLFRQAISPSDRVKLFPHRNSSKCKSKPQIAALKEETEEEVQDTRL
Nature of the assay: Protocol 1: membrane potential optical assay (FLIPR III, voltage sensing dye), identification of potentiator compounds. The assay is classed as cell-based. The conditions noted are these: Table 3, compounds of Table 1. An outline of the steps: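 Gating potentiation is read as a membrane-potential fluorescence change (FLIPR III, voltage-sensing dye) after one forskolin addition under a Cl− gradient, with gluconate replacing chloride, pH 7.4. Cells are F508del-expressing NIH3T3 mouse fibroblasts held 24 h at 27 °C and exposed to compound before dye loading.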
As for `CC(C)COc1cc(F)cc(-c2ccc(C(=O)NS(=O)(=O)c3ccn[nH]3)c(N3CCC(C)(C)C3C)n2)c1` (stereo not shown) [Compound 952, 6-(3-fluoro-5-isobutoxy-phenyl)-N-(1H-pyrazol-5-ylsulfonyl)-2-(2,3,3-trimethylpyrrolidin-1-yl)pyridine-3-carboxamide], the EC30 entry is “+++ (“+++” means <3 uM)”.

For `CC(C)COc1cc(-c2ccc(C(=O)NS(=O)(=O)c3ccn[nH]3)c(N3[C@H](C)CC[C@@H]3C)n2)ccc1Cl` [Compound 1234, 6-(4-chloro-3-isobutoxy-phenyl)-2-[(2S,5R)-2,5-dimethylpyrrolidin-1-yl]-N-(1H-pyrazol-5-ylsulfonyl)pyridine-3-carboxamide], the EC30 result is recorded as “+++ (“+++” means <3 uM)”.

Regarding `CC(C)COc1cc(F)cc(-c2ccc(C(=O)NS(=O)(=O)c3cccc(N)n3)c(N3[C@@H]4CCC[C@H]3CC4)n2)c1` [Compound 934, N-[(6-amino-2-pyridyl)sulfonyl]-2-[(1R,5S)-8-azabicyclo[3.2.1]octan-8-yl]-6-(3-fluoro-5-isobutoxy-phenyl)pyridine-3-carboxamide], the EC30 result is “+++ (“+++” means <3 uM)”.

In the case of `CC(C)COc1cc(-c2ccc(C(=O)NS(=O)(=O)c3ccc[nH]c3=O)c(N3CCC(C)CC3)n2)ccc1Cl` [Compound 941, 6-(4-chloro-3-isobutoxy-phenyl)-2-(4-methyl-1-piperidyl)-N-[(2-oxo-1H-pyridin-3-yl)sulfonyl]pyridine-3-carboxamide], the EC30 entry is “+++ (“+++” means <3 uM)”.

As to `Cc1cc(C)c(Oc2nc(C3CCCCC3)ccc2C(=O)NS(=O)(=O)c2cccc(N)n2)c(C)c1` [Compound 1131, N-[(6-amino-2-pyridyl)sulfonyl]-6-cyclohexyl-2-(2,4,6-trimethylphenoxy)pyridine-3-carboxamide], the EC30 entry is “+++ (“+++” means <3 uM)”.

For `CC(C)COc1cc(F)cc(-c2ccc(C(=O)NS(=O)(=O)c3cccc(N)n3)c(N3CC4CCC3CC4)n2)c1` [Compound 1657, N-[(6-amino-2-pyridyl)sulfonyl]-2-(3-azabicyclo[2.2.2]octan-3-yl)-6-(3-fluoro-5-isobutoxy-phenyl)pyridine-3-carboxamide], the EC30 entry is recorded as “+++ (“+++” means <3 uM)”.

For `C[C@@H]1CN(c2nc(C3CCCCO3)ccc2C(=O)NS(=O)(=O)c2cccc(N)n2)C(C)(C)C1` (stereo partly drawn) [Compound 1500, N-[(6-amino-2-pyridyl)sulfonyl]-6-tetrahydropyran-2-yl-2-[(4S)-2,2,4-trimethylpyrrolidin-1-yl]pyridine-3-carboxamide], the EC30 result is recorded as “+++ (“+++” means <3 uM)”.

With `CC(C)Oc1ccc(-c2ccc(C(=O)NS(=O)(=O)c3cccc(N)n3)c(N3CCC(OCC4CC4)CC3)n2)cn1` [Compound 884, N-[(6-amino-2-pyridyl)sulfonyl]-2-[4-(cyclopropylmethoxy)-1-piperidyl]-6-(6-isopropoxy-3-pyridyl)pyridine-3-carboxamide], the EC30 entry is “++ (“++” means between 3 uM and 10 uM)”.

Regarding `CCOc1cccc2c1CN(Cc1c(C)cc(C)cc1C)C2(C)C(=O)NS(=O)(=O)c1cccc(C(F)F)n1` (stereo not shown) [Compound 1597, N-[[6-(difluoromethyl)-2-pyridyl]sulfonyl]-4-ethoxy-1-methyl-2-[(2,4,6-trimethylphenyl)methyl]isoindoline-1-carboxamide], the EC30 result was “+++ (“+++” means <3 uM)”.

As to `CC(C)COc1cc(F)cc(-c2ccc(C(=O)NS(=O)(=O)c3cccc(N)n3)c(-n3nc(C(C)C)cc3C(C)C)n2)c1` [Compound 1387, N-[(6-amino-2-pyridyl)sulfonyl]-2-(3,5-diisopropylpyrazol-1-yl)-6-(3-fluoro-5-isobutoxy-phenyl)pyridine-3-carboxamide], the EC30 entry was “+++ (“+++” means <3 uM)”.

Turning to `Cc1cc(-c2ccc(C(=O)NS(=O)(=O)c3cccc(N)n3)c(N3C[C@@H](C)CC3(C)C)n2)cnc1OCC(C)C` [Compound 1741, N-[(6-amino-2-pyridyl)sulfonyl]-6-(6-isobutoxy-5-methyl-3-pyridyl)-2-[(4S)-2,2,4-trimethylpyrrolidin-1-yl]pyridine-3-carboxamide], the EC30 result is recorded as “+++ (“+++” means <3 uM)”.

For `C[C@@H]1CN(c2nc(C3=CCOCC3)ccc2C(=O)NS(=O)(=O)c2cccc(N)n2)C(C)(C)C1` [Compound 1594, N-[(6-amino-2-pyridyl)sulfonyl]-6-(3,6-dihydro-2H-pyran-4-yl)-2-[(4S)-2,2,4-trimethylpyrrolidin-1-yl]pyridine-3-carboxamide], the EC30 result is “+++ (“+++” means <3 uM)”.

As to `Cc1cc(C)c(Oc2nc(OC(C)(C)C)ccc2C(=O)NS(=O)(=O)c2cccc(N)n2)c(C)c1` [Compound 1070, N-[(6-amino-2-pyridyl)sulfonyl]-6-tert-butoxy-2-(2,4,6-trimethylphenoxy)pyridine-3-carboxamide], the EC30 entry is listed as “+++ (“+++” means <3 uM)”.

For `CC(C)COc1cc(F)cc(-c2ccc(C(=O)NS(=O)(=O)c3cccc(N)n3)c(N(C)C(C)c3cccc(Cl)c3)n2)c1` (stereo not shown) [Compound 1205, N-[(6-amino-2-pyridyl)sulfonyl]-2-[1-(3-chlorophenyl)ethyl-methyl-amino]-6-(3-fluoro-5-isobutoxy-phenyl)pyridine-3-carboxamide], the EC30 entry was “+++ (“+++” means <3 uM)”.

`CC(=O)N(C)C1CCN(S(=O)(=O)NC(=O)c2ccc(-c3cc(F)cc(OCC(C)C)c3)nc2N2CC(C)CC2(C)C)C1` (stereo not shown) [Compound 1533, N—[3-[acetyl(methyl)amino]pyrrolidin-1-yl]sulfonyl-6-(3-fluoro-5-isobutoxy-phenyl)-2-(2,2,4-trimethylpyrrolidin-1-yl)pyridine-3-carboxamide]: the EC30 entry is “+++ (“+++” means <3 uM)”.

Consider `C[C@@H]1CN(c2nc(C(C)(C)C)c(C(O)C(O)C3CCCCC3)cc2C(=O)NS(=O)(=O)c2cccc(N)n2)C(C)(C)C1` (stereo partly shown) [Compound 1846], for which the EC30 entry is “+++ (“+++” means <3 uM)”.

Consider `CCCN(C)c1cccc(S(=O)(=O)NC(=O)c2cccnc2N2CC(C)CC2(C)C)n1` (stereo not shown) [Compound 1711, N—[[6-[methyl(propyl)amino]-2-pyridyl]sulfonyl]-2-(2,2,4-trimethylpyrrolidin-1-yl)pyridine-3-carboxamide], for which the EC30 entry was “+++ (“+++” means <3 uM)”.

With `CCOc1cc(C)cc(-c2ccc(C(=O)NS(=O)(=O)c3cccc(N)n3)c(N3C[C@@H](C)CC3(C)C)n2)n1` [Compound 1512, N-[(6-amino-2-pyridyl)sulfonyl]-6-(6-ethoxy-4-methyl-2-pyridyl)-2-[(4S)-2,2,4-trimethylpyrrolidin-1-yl]pyridine-3-carboxamide], the EC30 result is “+++ (“+++” means <3 uM)”.

Consider `CC1CN(c2nc(C(C)(C)C)c(C#N)cc2C(=O)NS(=O)(=O)c2cccc(N)n2)C(C)(C)C1` (stereo not shown) [Compound 1419, N-[(6-amino-2-pyridyl)sulfonyl]-6-tert-butyl-5-cyano-2-(2,2,4-trimethylpyrrolidin-1-yl)pyridine-3-carboxamide], for which the EC30 result is reported as “+++ (“+++” means <3 uM)”.

Take `CCOc1cc(F)ccc1-c1ccc(C(=O)NS(=O)(=O)c2cccnc2N)c(N2C[C@@H](C)CC2(C)C)n1` [Compound 1808, N-[(2-amino-3-pyridyl)sulfonyl]-6-(2-ethoxy-4-fluoro-phenyl)-2-[(4S)-2,2,4-trimethylpyrrolidin-1-yl]pyridine-3-carboxamide]: the EC30 entry was “+++ (“+++” means <3 uM)”.

`Cc1cc(C)c(Oc2nc(-c3ccccc3)ccc2C(=O)NS(=O)(=O)c2cccc(NCCN(C)C)n2)c(C)c1` [Compound 1122, N-[[6-(2-dimethylaminoethylamino)-2-pyridyl]sulfonyl]-6-phenyl-2-(2,4,6-trimethylphenoxy)pyridine-3-carboxamide]: the EC30 entry was “++ (“++” means between 3 uM and 10 uM)”.

In the case of `CC(C)COc1cc(F)cc(-c2ccc(C(=O)NS(=O)(=O)c3cccc(N)n3)c(N3[C@@H](C)CCC3(C)C)n2)c1` [Compound 1241, N-[(6-amino-2-pyridyl)sulfonyl]-6-(3-fluoro-5-isobutoxy-phenyl)-2-[(5S)-2,2,5-trimethylpyrrolidin-1-yl]pyridine-3-carboxamide], the EC30 result was “+++ (“+++” means <3 uM)”.

Regarding `CC(C)COc1cc(F)cc(-c2ccc(C(=O)NS(=O)(=O)c3cccc(N)n3)c(N3CCC[C@@H]3C(C)(C)C)n2)c1` [Compound 1170, N-[(6-amino-2-pyridyl)sulfonyl]-2-[(2R)-2-tert-butylpyrrolidin-1-yl]-6-(3-fluoro-5-isobutoxy-phenyl)pyridine-3-carboxamide], the EC30 result is “+++ (“+++” means <3 uM)”.

As to `C[C@@H]1CN(c2nc(C(C)(C)C)c(/C=C/C3CCCCC3)cc2C(=O)NS(=O)(=O)c2cccc(N)n2)C(C)(C)C1` [Compound 1484, N-[(6-amino-2-pyridyl)sulfonyl]-6-tert-butyl-5-[(E)-2-cyclohexylvinyl]-2-[(4S)-2,2,4-trimethylpyrrolidin-1-yl]pyridine-3-carboxamide], the EC30 entry was “+++ (“+++” means <3 uM)”.

`CC(C)COc1cc(F)cc(-c2ccc(C(=O)NS(=O)(=O)c3cccc(N)n3)c(OC3CC(F)(F)C3)n2)c1` [Compound 1458]: the EC30 entry is on record as “+++ (“+++” means <3 uM)”.

Consider `Cc1cc(C)c(Oc2nc(-c3ccc4ccn(C)c4c3)ccc2C(=O)NS(=O)(=O)c2ccc[nH]c2=O)c(C)c1` [Compound 936, 6-(1-methylindol-6-yl)-N-[(2-oxo-1H-pyridin-3-yl)sulfonyl]-2-(2,4,6-trimethylphenoxy)pyridine-3-carboxamide], for which the EC30 entry was “++ (“++” means between 3 uM and 10 uM)”.

With `CC(C)COc1cnn(-c2ccc(C(=O)NS(=O)(=O)c3ccc[nH]c3=O)c(N3C[C@@H](C)CC3(C)C)n2)c1` [Compound 1760, 6-(4-isobutoxypyrazol-1-yl)-N-[(2-oxo-1H-pyridin-3-yl)sulfonyl]-2-[(4S)-2,2,4-trimethylpyrrolidin-1-yl]pyridine-3-carboxamide], the EC30 result was “++ (“++” means between 3 uM and 10 uM)”.

In the case of `Cc1cc(C)c(Oc2nc(C(C)C)ccc2C(=O)NS(=O)(=O)c2cccc(N)n2)c(C)c1` [Compound 1232, N-[(6-amino-2-pyridyl)sulfonyl]-6-isopropyl-2-(2,4,6-trimethylphenoxy)pyridine-3-carboxamide], the EC30 result is listed as “+++ (“+++” means <3 uM)”.
